Results reported in patent US4870074A, “Substituted benzamide derivatives, for enhancing gastrointestinal motility” (priority 1986, dated 1989).

Legend:
gastric emptying = assay: Test 1: gastric emptying enhancing activity (phenol red test meal); format: in vivo, Male Wistar rats; details: for change in vivo at 2 mg/kg / change in vivo at 0.5 mg/kg / change in vivo at 0.2 mg/kg / change in vivo at 5 mg/kg / change in vivo at 10 mg/kg: po, 0.25 h, 60 min before test meal, rat, read-out: Gastric emptying enhancing activity, Increase (emptying rate vs control); for change in vivo at 2 mg/kg: 2.0 mg/kg p.o.; for change in vivo at 0.5 mg/kg: 0.5 mg/kg p.o.; for change in vivo at 0.2 mg/kg: 0.2 mg/kg p.o.; for change in vivo at 5 mg/kg: 5.0 mg/kg p.o.; for change in vivo at 10 mg/kg: 10.0 mg/kg p.o.
Protocol: The test was carried out according to the method of Scarpignato et al. [cf. Arch. int. Pharmacodyn., 246, 286-294 (1980)].
Male Wistar rats, weighing 130-150 g, were fasted for 18 hours before experimentation, and 1.5 ml of a test meal (phenol red 0.05% in a 1.5% aqueous methylcellulose solution) was given by gastric tube. Fifteen minutes after administration of the meal the stomach was removed and the amount of phenol red remaining in the stomach was measured.
The test compounds, dissolved or suspended in a 0.5% tragacanth solution, were orally administered 60 minutes before administration of the test meal. The rate of gastric emptying was calculated according to the amount of phenol red remaining in the stomach, and the activity of the test compounds was expressed in terms of increase in the emptying rate from the control. The number of animals used was 5 for the control and each dose of metoclopramide hydrochloride monohydrate and 4 for each dose of the other test compounds.

central nervous system = assay: Test 3: effect on the central nervous system (CNS effect), Irwin observation; details: 100 mg/kg, p.o., mouse, 2 hours observation
Protocol: Male ddY mice, weighing 18-25 g, were used in groups of 3 animals each. […] Psychopharmacologia, 13, 222-227 (1968)], comprehensive observation of behavioral and physiologic states were carried out for 2 hours after the oral treatment with 100 mg/kg of the test compound, dissolved or suspended in a 0.5% tragacanth solution. Liability of the test compounds to the central nervous system effect was expressed with the following marks, according to the total sum of potencies for the individually analyzed effects, such as catalepsy, ptosis, hypolocomotin, etc.

| Structure (SMILES) | change in vivo at 2 mg/kg (gastric emptying) [%] | CNS effect (central nervous system) | also measured |
| --- | --- | --- | --- |
| CCOc1cc(N)c(Cl)cc1C(=O)NCC1CN(Cc2ccccn2)CCO1 (stereo not drawn) [Example 79] | 51 |  |  |
| C#CCOc1cc(N)c(Cl)cc1C(=O)NCC1CN(Cc2ccccc2)CCO1 (stereo not drawn) [Example 120] | 40.6 |  |  |
| CC(C)COc1cc(N)c(Cl)cc1C(=O)NCC1CN(Cc2ccccc2)CCO1 (stereo not drawn) [Example 91] | 51.2 | - |  |
| CCOc1cc(N)c(Cl)cc1C(=O)NCC1CN(Cc2cccc(C(F)(F)F)c2)CCO1 (stereo not drawn) [Example 70] | 57.8 | - |  |
| CCOc1cc(N)c(Cl)cc1C(=O)NCC1CN(Cc2ccc(Cl)cc2[N+](=O)[O-])CCO1 (stereo not drawn) [Example 74] | 46.7 | - |  |
| CC(C)CCOc1cc(N)c(Cl)cc1C(=O)NCC1CN(Cc2ccccc2)CCO1 (stereo not drawn) [Example 93, 4-amino-N-[(4-benzyl-2-morpholinyl)methyl]-5-chloro-2-isopentyloxybenzamide] | 44.2 | - | change in vivo at 0.5 mg/kg (gastric emptying): 46.9% |
| CCOc1cc(N)c(Cl)cc1C(=O)NCC1CN(Cc2ccc(F)cc2)CCO1 (stereo not drawn) [Example 1(1), 4-amino-5-chloro-2-ethoxy-N-[[4-(4-fluorobenzyl)-2-morpholinyl]methyl]benzamide] | 49.8 | - | change in vivo at 0.2 mg/kg (gastric emptying): 39.5% |
| COc1cc(N)c(Cl)cc1C(=O)NCC1CN(CCCOc2ccc(Cl)cc2)CCO1 (stereo not drawn) [Example 52] | 52.5 |  |  |
| COc1cc(N)c(Cl)cc1C(=O)NCC1CN(Cc2c(F)c(F)c(F)c(F)c2F)CCO1 (stereo not drawn) [Example 25] | 39.1 |  |  |
| CCOc1cc(N)c(Cl)cc1C(=O)NCC1CN(Cc2ccccc2Cl)CC(C)O1 (stereo not drawn) [Example 14, 4-amino-5-chloro-N-[[4-(2-chlorobenzyl)-6-methyl-2-morpholinyl]methyl]-2-ethoxybenzamide] | 47.5 |  |  |
| CCOc1cc(N)c(Cl)cc1C(=O)NCC1C[N+]([O-])(Cc2ccccc2Cl)CCO1 (stereo not drawn) [Example 244, 4-amino-5-chloro-N-[[4-(2-chlorobenzyl)-2-morpholinyl]methyl]-2-ethoxybenzamide N-oxide] | 51.8 |  |  |
| COc1cc(N(C)C)c(Cl)cc1C(=O)NCC1CN(Cc2ccccc2)CCO1 (stereo not drawn) [Example 130] | 51.8 |  |  |
| CCCCOc1cc(N)c(Cl)cc1C(=O)NCC1CN(Cc2ccccc2)CCO1 (stereo not drawn) [Example 88, 4-amino-N-[(4-benzyl-2-morpholinyl)methyl]-2-butoxy-5-chlorobenzamide] | 53.7 | - | change in vivo at 0.2 mg/kg (gastric emptying): 32.8%; change in vivo at 0.5 mg/kg (gastric emptying): 42.9% |
| CCOc1cc(N)c(Cl)cc1C(=O)NCC1CN(Cc2cccnc2)CCO1 (stereo not drawn) [80(1)] | 65.6 | - |  |
| Nc1cc(OC2CCCC2)c(C(=O)NCC2CN(Cc3ccccc3)CCO2)cc1Cl (stereo not drawn) [Example 101] | 46.4 | - |  |
| CC(C)=CCOc1cc(N)c(Cl)cc1C(=O)NCC1CN(Cc2ccccc2)CCO1 (stereo not drawn) [Example 116, 4-amino-N-[(4-benzyl-2-morpholinyl)methyl]-5-chloro-2-(3-methyl-2-butenyloxy)benzamide] | 52.4 | - | change in vivo at 0.5 mg/kg (gastric emptying): 41.4% |
| CCN(CC)CCNC(=O)c1cc(Cl)c(N)cc1OC [A, 4-amino-5-chloro-N-[(2-diethylamino)ethyl]-2-methoxybenzamide, reference compound] | 20.7 |  | change in vivo at 5 mg/kg (gastric emptying): 25.7%; change in vivo at 10 mg/kg (gastric emptying): 30.7% |
| CCCCCCCOc1cc(N)c(Cl)cc1C(=O)NCC1CN(Cc2ccccc2)CCO1 (stereo not drawn) [Example 97] | 43.8 | - |  |
| CCCCCOc1cc(N)c(Cl)cc1C(=O)NCC1CN(Cc2ccccc2)CCO1 (stereo not drawn) [Example 92] | 41 |  |  |
| COc1cc(N)c(Cl)cc1C(=O)NCC1CN(Cc2ccccc2)CCO1 (stereo not drawn) [18(2), 4-amino-N-[(4-benzyl-2-morpholinyl)methyl]-5-chloro-2-methoxybenzamide] | 39.3 | - |  |

| Structure (SMILES) | change in vivo at 2 mg/kg (gastric emptying) [%] | CNS effect (central nervous system) | also measured |
| --- | --- | --- | --- |
| CCCCOc1cc(N)c(Cl)cc1C(=O)NCC1CN(Cc2ccc(F)cc2)CCO1 (stereo not drawn) [Example 89] | 49.9 | + |  |
| CCOc1cc(N)c(Cl)cc1C(=O)NCC1CN(Cc2ccc(Cl)cc2)CCO1 (stereo not drawn) [68(1)] | 62.7 | - |  |
| CCOc1cc(N(C)C)c(Cl)cc1C(=O)NCC1CN(Cc2ccccc2)CCO1 (stereo not drawn) [Example 132] | 50.6 |  |  |
| COc1cc(N)c(Cl)cc1C(=O)NCC1CN(Cc2cccc(C#N)c2)CCO1 (stereo not drawn) [Example 33] | 42.3 |  |  |
| CCCOc1cc(N)c(Cl)cc1C(=O)NCC1CN(Cc2ccccc2)CCO1 (stereo not drawn) [Example 86] | 55 |  |  |
| COc1cc(N)c(Cl)cc1C(=O)NCC1CN(Cc2ccc(C#N)cc2)CCO1 (stereo not drawn) [Example 6, 4-amino-5-chloro-N-[[4-(4-cyanobenzyl)-2-morpholinyl]methyl]-2-methoxybenzamide] | 49.2 | - |  |
| CC(=O)COc1cc(N)c(Cl)cc1C(=O)NCC1CN(Cc2ccccc2)CCO1 (stereo not drawn) [Example 104] | 43.8 | - |  |
| Nc1cc(OCC2CC2)c(C(=O)NCC2CN(Cc3ccccc3)CCO2)cc1Cl (stereo not drawn) [Example 111] | 48.7 |  |  |
| CCOc1cc(N)c(Cl)cc1C(=O)NCC1CN(Cc2cccc(F)c2)CCO1 (stereo not drawn) [Example 65] | 54.1 |  |  |
| Nc1cc(OCCCl)c(C(=O)NCC2CN(Cc3ccccc3)CCO2)cc1Cl (stereo not drawn) [Example 102] | 46.8 |  |  |
| CCN1CCOC(CNC(=O)c2ccccc2OC)C1.O=C(O)/C=C/C(=O)O (stereo not drawn) [Compound B, N-[(4-Ethyl-2-morpholinyl)methyl]-2-methoxybenzamide fumarate, reference compound] | 3.8 |  | gastric emptying enhancing effect (in words) (gastric emptying; even at a dose of 10.0 mg/kg p.o.): did not show any effect; change in vivo at 5 mg/kg (gastric emptying): -1.9%; change in vivo at 10 mg/kg (gastric emptying): 2.1% |
| COc1cc(N)c(Cl)cc1C(=O)NCC1CN(C(C)c2ccccc2)CCO1 (stereo not drawn) [Example 37] | 42.2 |  |  |
| CCOc1cc(N)c(Cl)cc1C(=O)NCC1CN(Cc2ccccc2)CCCO1 (stereo not drawn) [Example 16, 4-amino-N-[(4-benzyl-hexahydro-1,4-oxazepin-2-yl)methyl]-5-chloro-2-ethoxybenzamide] | 47.3 |  |  |
| CCOc1cc(N)c(Cl)cc1C(=O)NCC1CN(C(C)c2ccccc2)CCO1 (stereo not drawn) [Example 77] | 43.8 |  |  |
| CCOc1cc(NC(C)=O)c(Cl)cc1C(=O)NCC1CN(Cc2ccc(F)cc2)CCO1 (stereo not drawn) [Example 7, 4-acetylamino-5-chloro-2-ethoxy-N-[[4-(4-fluorobenzyl)-2-morpholinyl]methyl]benzamide] | 74 |  |  |
| CCOc1cc(N)c(Cl)cc1C(=O)NCC1CN(CCCCc2ccccc2)CCO1 (stereo not drawn) [Example 76] | 47.1 |  |  |
| CCOc1cc(N)c(Cl)cc1C(=O)NCC1CN(Cc2ccccc2F)CCO1 (stereo not drawn) [Example 64] | 59.9 |  |  |
| C=CCOc1cc(N)c(Cl)cc1C(=O)NCC1CN(Cc2ccccc2)CCO1 (stereo not drawn) [Example 115] | 45.6 |  |  |
| COc1cc(N)c(Cl)cc1C(=O)NCC1CN(Cc2cccc(C(F)(F)F)c2)CCO1 (stereo not drawn) [Example 28] | 42.8 |  |  |
| CCOc1cc(N)c(Cl)cc1C(=O)NCC1CN(Cc2ccc(C#N)cc2)CCO1 (stereo not drawn) [Example 73] | 46.2 |  | change in vivo at 0.5 mg/kg (gastric emptying): 44.2% |
